From patent US20060074255A1, “3-Methyl-20-epi-vitamin D derivatives” (priority 2000, published 2006)

Molecular target: T1, bovine thymus vitamin D receptor (Bos taurus, UniProt Q28037)
T1 construct: Bovine thymus 1α,25-dihydroxyvitamin D3 receptor was purchased from Yamasa Biochemcal; purchased Yamasa Biochemcal (Choshi, Chiba, Japan) lot; 112631; host or cells: bovine thymus (tissue preparation)
T1 sequence (Q28037 1-426): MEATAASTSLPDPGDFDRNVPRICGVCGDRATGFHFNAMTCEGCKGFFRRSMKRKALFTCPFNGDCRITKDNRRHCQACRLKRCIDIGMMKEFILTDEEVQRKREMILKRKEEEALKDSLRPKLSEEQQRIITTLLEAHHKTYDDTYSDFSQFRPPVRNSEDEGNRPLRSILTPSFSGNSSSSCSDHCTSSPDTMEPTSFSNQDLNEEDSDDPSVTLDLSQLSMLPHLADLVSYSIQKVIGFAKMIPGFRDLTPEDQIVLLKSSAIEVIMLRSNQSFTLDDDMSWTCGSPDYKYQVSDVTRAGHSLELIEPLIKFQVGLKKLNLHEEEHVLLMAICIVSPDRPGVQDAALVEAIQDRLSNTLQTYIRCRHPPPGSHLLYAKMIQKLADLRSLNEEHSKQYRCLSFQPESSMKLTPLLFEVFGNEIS
Assay: Assay for Binding to Bovine Thymus Vitamin D Receptor (VDR)
Details: relative value with 1α,25-dihydroxyvitamin D3 taken as 100; X=(y/x)×100 from concentrations inhibiting 50% of [3H]-1α,25-dihydroxyvitamin D3 binding to VDR
Description: Assay for Binding to Bovine Thymus Vitamin D Receptor (VDR)
Compounds 14, 16, 19 and 21 synthesized in the above Examples 1 to 4 were tested for their binding properties to bovine thymus vitamin D receptor.
Ethanol solutions of 1α,25-dihydroxyvitamin D3 (the standard substance) and Compounds 14, 16, 19 and 21 were prepared at various concentrations. Bovine thymus 1α,25-dihydroxyvitamin D3 receptor was purchased from Yamasa Biochemcal (Choshi, Chiba, Japan) (lot. 112631) and, just before use, one ampule (approximately 25 mg) of the receptor was dissolved in 55 mL of 0.05 M phosphate buffer (pH 7.4) containing 0.3M KCl and 5 mM dithiothreitol.
Each of the ethanol solutions (50 μl) of the test compounds and 1α,25-dihydroxyvitamin D3 was put into a respective tube with 500 μl (0.23 mg protein) of the receptor solution, pre-incubated at 25° C. for 1 hour, and [^3H]-1α,25-dihydroxyvitamin D3 was added at the final concentration of 0.1 nM, followed by incubation overnight at 4° C. Each of the reaction mixtures was mixed with DCC (dextran coated charcoal), left for 30 minutes at 4° C. and centrifuged at 3000 rpm for ten minutes to separate the bound and free forms of [^3H]-1α,25-dihydroxyvitamin D3. Each of the resultant supernatants (500 μl) was mixed with ACS-II (9.5 ml) (AMERSHAM, England) for radioactivity measurement.
The binding properties of the test compounds expressed in relative value with that of 1α,25-dihydroxyvitamin D3 taken as 100 were shown in Table below. The values were calculated according to the following equation. X=(y/x)×100 • X: relative VDR binding property of a test compound • y: concentration of 1α,25-dihydroxyvitamin D3 that inhibits 50% of the binding of [^3H]-1α,25-dihydroxyvitamin D3 and VDR
x: concentration of the test compound that inhibits 50% of the binding of [^3H]-1α,25-dihydroxyvitamin D3 and VDR

C=C1/C(=C\C=C2/CCC[C@@]3(C)C2CCC3[C@@H](C)CCCC(C)(C)O)C[C@@](C)(O)C[C@H]1O (stereo partly drawn) [Compound 14, (5Z,7E)-(1R,3R,20S)-3-methyl-9,10-seco-5,7,10(19)-cholestatriene-1,3,25-triol]
VDR binding properties: 0.035

C=C1/C(=C\C=C2/CCC[C@@]3(C)C2CCC3[C@@H](C)CCCC(C)(C)O)C[C@](C)(O)C[C@@H]1O (stereo partly drawn) [Compound 19, (5Z,7E)-(lS,3S,20S)-3-methyl-9,10-seco-5,7,10(19)-cholestatriene-1,3,25-triol]
VDR binding properties: 0.24

C=C1/C(=C\C=C2/CCC[C@@]3(C)C2CCC3[C@@H](C)CCCC(C)(C)O)C[C@@](C)(O)C[C@@H]1O (stereo partly drawn) [Compound 16, (5Z,7E)-(1S,3R,20S)-3-methyl-9,10-seco-5,7,10(19)-cholestatriene-1,3,25-triol]
VDR binding properties: 70

C=C1/C(=C\C=C2/CCC[C@@]3(C)C2CCC3[C@@H](C)CCCC(C)(C)O)C[C@](C)(O)C[C@H]1O (stereo partly drawn) [Compound 21, (5Z,7E)-(1R,3S,20S)-3-Methyl-9,10-seco-5,7,10(19)-cholestatriene-1,3,25-triol]
VDR binding properties: <0.01
